Measurements as given in patent US20240294551A1 (AMGEN INC., priority 2022, published 2024).
Structures can show the parent of a compound that is named as a salt. Where two headings read alike, the source gives them in different places.

What was measured:
[1] = molecular target: His-tagged KRAS G12D protein (Homo sapiens (Human), UniProt P01116, G12D); test: KRAS G12D TR-FRET Assay; type: binding
Procedure, shortened: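 His-tagged KRAS G12D (diluted to 20 nM in pH 7.4 HEPES buffer with 10 mM MgCl2 and 10 μM GDP) was preincubated with titrated compound for 30 min at room temperature. Biotinylated KRPep-2d peptide (diluted to 20 nM) was then added for 1 h, and displacement was monitored by TR-FRET.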

[2] = molecular target: GDP-bound KRAS protein (aa 1-169), containing both G12D and C118A amino acid substitutions (Homo sapiens (Human), UniProt P01116, C118A/G12D); test: KRAS G12D Coupled Nucleotide Exchange Assay; type: biochemical
[3] = system: Phosphorylation of ERK1/2 in AsPC-1 cells; test: Phospho-ERK1/2 MSD Assay; type: cell-based, human; conditions: Homo sapiens, ASPC1, 2 h
Procedure, shortened: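 Read-out: MSD electrochemiluminescent detection of phosphorylated ERK1/2 in whole-cell lysates, fitted to a 4-parameter logistic curve for IC50. Prior to lysis, AsPC-1 cells (25,000 per well) received a 2 h compound dose-response at 37 °C.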

AsPC-1 cells = test: AsPC-1 CTG Assay (CellTiter-Glo cell viability); type: cell-based, human; conditions: Homo sapiens, ASPC1, 72 h, first value of the cell, read-out: G12D/C/V Cell Proliferation CTG (72 h) AsPC-1
Procedure: AsPC-1 and SW620 CTG Assay Protocols
AsPC-1 (human pancreatic adenocarcinoma; ATCC CRL-1682) or SW620 (human colon adenocarcinoma; ATCC CCL-227) cells were cultured in RPMI 1640 medium containing 10% fetal bovine serum and 1× penicillin/streptomycin/L-glutamine. Cells were seeded in 384-well plates at a density of 3.33E+04 cells/mL and incubated at 37° C., 5% CO2, overnight. Serially-diluted compound or DMSO was added to the cells, and plates were incubated at 37° C., 5% CO2 for 72 h. Cell viability was measured using a CellTiter-Glo® Luminescent Cell Viability Assay kit (Promega) according to the manufacturer's protocol. The luminescence signal of treated samples was normalized to DMSO control, and data were analyzed using a 4-parameter logistic model to calculate IC50 values.

[4] = read-out: KRAS G12D Binding IC50
[5] = read-out: KRAS G12D Coupled Exchange IC50
[6] = read-out: 2 h p-ERK (AsPC-1 cells), IC50
[7] = TR-FRET, read-out: KRAS G12D Binding
[8] = 2 hours compound pre-incubation, read-out: KRAS G12D Coupled Exchange
[9] = read-out: 2 h p-ERK (AsPC-1 cells)

GDP-bound KRAS protein (aa 1-169), containing both G12D and C118A amino acid substitutions, sequence (P01116 other isoform, or with tags, fused parts or gaps G12D/C118A): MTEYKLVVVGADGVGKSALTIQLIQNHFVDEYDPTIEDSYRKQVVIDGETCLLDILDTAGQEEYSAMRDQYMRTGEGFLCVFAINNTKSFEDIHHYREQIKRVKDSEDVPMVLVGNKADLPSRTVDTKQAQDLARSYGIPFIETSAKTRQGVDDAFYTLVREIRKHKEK
His-tagged KRAS G12D protein, sequence (P01116 other isoform, or with tags, fused parts or gaps G12D): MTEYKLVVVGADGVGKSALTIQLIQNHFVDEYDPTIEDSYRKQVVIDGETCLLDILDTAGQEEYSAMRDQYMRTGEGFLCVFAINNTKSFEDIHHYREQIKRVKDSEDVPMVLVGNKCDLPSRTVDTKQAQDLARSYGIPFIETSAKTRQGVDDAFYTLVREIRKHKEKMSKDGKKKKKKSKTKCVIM

SMILES: COc1c2ncc3c(nc(OC[C@@]45CCCN4C[C@H](F)C5)nc13)N1CCC[C@](C)(C1)NC(=O)CCCc1c(F)ccc3cc(O)cc-2c13 [Example 19, (15R)-22-Fluoro-8-(((2R,7aS)-2-fluorotetrahydro-1H-pyrrolo[1,2-a]pyrrol-7a(5H)-yl)methoxy)-27-hydroxy-31-methoxy-15-methyl-3,7,9,11,16-pentaazahexacyclo[19.7.1.1˜2,6˜.1˜11,15˜.0˜5,10˜.0˜25,29˜]hentriaconta-1(28),2(31),3,5,7,9,21,23,25(29),26-decaen-17-one]
- IC50 [1, 4]: 0.007 µM
- IC50 [2, 5]: 0.005 µM
- IC50 [3, 6]: 1.86 µM
- IC50 (AsPC-1 cells; AsPC-1, 72 h): 5 µM

SMILES: Fc1c2ncc3c(nc(OC[C@@]45CCCN4C[C@H](F)C5)nc13)N1CCOC[C@@H](Cc3ncc(o3)CCc3c(Cl)cc4[nH]ncc4c3-2)C1 (single isomer, unassigned) [Example 376]
- IC50 [1, 7]: 0.016 µM
- IC50 [2, 8]: 0.011 µM
- IC50 [3, 9]: 0.35 µM
- IC50 (AsPC-1 cells; AsPC-1 cells (G12D), 72 h): 2.06 µM

SMILES: Fc1c2ncc3c(nc(OC[C@@]45CCCN4C[C@H](F)C5)nc13)N1CCOC[C@H](Cc3ncc(o3)CCc3c(Cl)cc4[nH]ncc4c3-2)C1 (single isomer, unassigned) [Example 375]
- IC50 [1, 7]: 0.027 µM
- IC50 [2, 8]: 0.015 µM
- IC50 [3, 9]: 0.673 µM
- IC50 (AsPC-1 cells; AsPC-1 cells (G12D), 72 h): 3.12 µM

SMILES: C[C@@]12CCCN(C1)c1nc(OC[C@@]34CCCN3C[C@H](F)C4)nc3c(F)c(ccc13)-c1cc(O)cc3ccc(F)c(c13)CCC(F)C(=O)N2 (mixture of isomers) [Example 17, 2,2,2-trifluoroacetate salt]
- IC50 [1, 4]: 0.011 µM
- IC50 [2, 5]: 0.007 µM
- IC50 [3, 6]: 0.046 µM
- IC50 (AsPC-1 cells; AsPC-1, 72 h): 0.405 µM

SMILES: O=C1N[C@@H]2C[C@H](O)CN(C2)c2nc(OC[C@@]34CCCN3C[C@H](F)C4)nc3c(F)c(ncc23)-c2c(c(Cl)cc3[nH]ncc23)CCCO1 [Example 284, (17R,19S)-9-chloro-30-fluoro-24-(((2R,7aS)-2-fluorotetrahydro-1H-pyrrolo[1,2-a]pyrrol-7a(5H)-yl)methoxy)-19-hydroxy-14-oxa-5,6,16,21,23,25,29-heptaazahexacyclo[24.3.1.1~17,21~.0~2,10~.0~3,7~.0~22,27~]hentriaconta-1(30),2,4,7,9,22,24,26,28-nonaen-15-one]
- IC50 [1, 4]: 0.005 µM
- IC50 [2, 5]: 0.002 µM
- IC50 [3, 6]: 0.0413 µM
- IC50 (AsPC-1 cells; AsPC-1, 72 h): 0.788 µM

SMILES: CN(C)CC1(COc2nc3c4cnc(c(F)c4n2)-c2c(c(Cl)cc4[nH]ncc24)CCCCOCC2(F)CCCCN3C2)CC1 (stereo in doubt) [Example 400, 1-(1-((((26R)-18-chloro-26,32-difluoro-24-oxa-1,3,5,9,14,15-hexaazahexacyclo[24.4.1.1~6,10~.0~2,7~.0~11,19~.0~12,16~]dotriaconta-2,4,6,8,10(32),11,13,16,18-nonaen-4-yl)oxy)methyl)cyclopropyl)-N,N-dimethylmethanamine]
- IC50 [1, 7]: 0.015 µM
- IC50 [2, 8]: 0.008 µM
- IC50 [3, 9]: 0.371 µM
- IC50 (AsPC-1 cells; AsPC-1 cells (G12D), 72 h): 0.817 µM

SMILES: O=S1(=O)CCCCc2c(Cl)cc3[nH]ncc3c2-c2ncc3c(nc(OC[C@@]45CCCN4C[C@H](F)C5)nc3c2F)N2CCC[C@H](C2)C1 [Example 145]
- IC50 [1, 4]: 0.068 µM
- IC50 [2, 5]: 0.063 µM
- IC50 [3, 6]: 4.67 µM
- IC50 (AsPC-1 cells; AsPC-1, 72 h): 5 µM

SMILES: O=C1OCCc2c(Cl)cc3[nH]ncc3c2-c2ncc3c(nc(OC[C@@]45CCCN4C[C@@H](F)C5)nc3c2F)N2CCC[C@]3(C2)C[C@H](C3)O1 [Example 350, (1R,3S)-10-chloro-32-fluoro-24-(((2S,7aS)-2-fluorotetrahydro-1H-pyrrolo[1,2-a]pyrrol-7a(5H)-yl)methoxy)-4,6-dioxa-13,14,19,23,25,27-hexaazaheptacyclo[25.3.1.1~1,3~.1~18,22~.0~9,17~.0~12,16~.0~21,26~]tritriaconta-9,11,14,16,18(32),19,21,23,25-nonaen-5-one]
- IC50 [1, 4]: 0.006 µM
- IC50 [2, 5]: 0.003 µM
- IC50 [3, 6]: 0.0581 µM
- IC50 (AsPC-1 cells; AsPC-1, 72 h): 0.545 µM

SMILES: Cc1cc2[nH]ncc2c2c1CCCC(=O)OCCC1CCCN(C1)c1nc(OC[C@@]34CCCN3C[C@H](F)C4)nc3c(F)c-2ncc13 (stereo partly shown) [Example 105]
- IC50 [1, 4]: 0.014 µM
- IC50 [2, 5]: 0.008 µM
- IC50 [3, 6]: 0.245 µM
- IC50 (AsPC-1 cells; AsPC-1, 72 h): 1.94 µM

SMILES: OC1CCCCc2c(Cl)cc3[nH]ncc3c2-c2ncc3c(nc(OC[C@@]45CCCN4C[C@H](F)C5)nc3c2F)N2CCC[C@@H](C1)C2 (mixture of isomers) [Example 385, bis(2,2,2-trifluoroacetate) salt]
- IC50 [1, 7]: 0.031 µM
- IC50 [2, 8]: 0.016 µM
- IC50 [3, 9]: 0.137 µM
- IC50 (AsPC-1 cells; AsPC-1 cells (G12D), 72 h): 0.211 µM

SMILES: Fc1c2ncc3c(nc(OC[C@@]45CCCN4C[C@H](F)C5)nc13)N1CC[C@@H](COCCCCc3c(Cl)cc4[nH]ncc4c3-2)C1 [Example 254, (17R)-9-chloro-29-fluoro-23-(((2R,7aS)-2-fluorotetrahydro-1H-pyrrolo[1,2-a]pyrrol-7a(5H)-yl)methoxy)-15-oxa-5,6,20,22,24,28-hexaazahexacyclo[23.3.1.1~17,20~.0~2,10~.0~3,7~.0~21,26~]triaconta-1(29),2,4,7,9,21,23,25,27-nonaene]
- IC50 [1, 4]: 0.019 µM
- IC50 [2, 5]: 0.012 µM
- IC50 [3, 6]: 0.545 µM
- IC50 (AsPC-1 cells; AsPC-1, 72 h): 3.97 µM

SMILES: O=C1N[C@H]2CN(C[C@H]3C[C@H]32)c2nc(OC[C@@]34CCCN3C[C@H](F)C4)nc3c(F)c(ncc23)-c2c(c(Cl)cc3[nH]ncc23)CCC[C@@H]1F [Example 175, (23S,26R,27R,29S)-18-chloro-23,32-difluoro-4-(((2R,7aS)-2-fluorotetrahydro-1H-pyrrolo[1,2-a]pyrrol-7a(5H)-yl)methoxy)-1,3,5,9,14,15,25-heptaazaheptacyclo[24.4.1.1~6,10~.0~2,7~.0~11,19~.0~12,16~.0~27,29~]dotriaconta-2,4,6,8,10(32),11,13,16,18-nonaen-24-one]
- IC50 [1, 4]: 0.005 µM
- IC50 [2, 5]: 0.004 µM
- IC50 [3, 6]: 0.0277 µM
- IC50 (AsPC-1 cells; AsPC-1, 72 h): 0.123 µM

SMILES: O=C1CCCc2c(F)ccc3cc(O)cc(c23)-c2ncc3c(nc(OC[C@@]45CCCN4C[C@H](F)C5)nc3c2F)N2CCC[C@](CF)(C2)O1 [Example 42]
- IC50 [1, 4]: 0.004 µM
- IC50 [2, 5]: 0.002 µM
- IC50 [3, 6]: 0.038 µM
- IC50 (AsPC-1 cells; AsPC-1, 72 h): 0.414 µM

SMILES: O=C1OCCCc2c(Cl)cc3[nH]ncc3c2-c2ncc3c(nc(OC[C@@]45CCCN4C[C@H](F)C5)nc3c2F)N2CCOC[C@]3(C2)C[C@@H](C3)O1 [Example 312, (1S,3S)-11-chloro-34-fluoro-25-(((2R,7aS)-2-fluorotetrahydro-1H-pyrrolo[1,2-a]pyrrol-7a(5H)-yl)methoxy)-4,6,31-trioxa-14,15,20,24,26,28-hexaazaheptacyclo[26.4.1.1~1,3~.1~19,23~.0~10,18~.0~13,17~.0~22,27~]pentatriaconta-10,12,15,17,19(34),20,22,24,26-nonaen-5-one]
- IC50 [1, 4]: 0.004 µM
- IC50 [2, 5]: 0.002 µM
- IC50 [3, 6]: 0.342 µM
- IC50 (AsPC-1 cells; AsPC-1, 72 h): 1.08 µM

SMILES: C[C@@]12CCCN(C1)c1nc(OC[C@@]34CCCN3C[C@H](F)C4)nc3c(F)c(ncc13)-c1cccc3ccc(F)c(c13)CC[C@@H](F)C(=O)N2 [Example 2, (15R,18R)-18,22,31-trifluoro-8-(((2R,7aS)-2-fluorotetrahydro-1H-pyrrolo[1,2-a]pyrrol-7a(5H)-yl)methoxy)-15-methyl-3,7,9,11,16-pentaazahexacyclo[19.7.1.1˜2,6˜.1˜11,15˜.0˜5,10˜.0˜25,29˜]hentriaconta-1(28),2(31),3,5,7,9,21,23,25(29),26-decaen-17-one]
- IC50 [1, 4]: 0.05 µM
- IC50 [2, 5]: 0.024 µM
- IC50 [3, 6]: 1.4 µM
- IC50 (AsPC-1 cells; AsPC-1, 72 h): 4.11 µM

SMILES: O=C1OCCc2c(F)cc3[nH]ncc3c2-c2ncc3c(nc(OC[C@@]45CCCN4C[C@H](F)C5)nc3c2F)N2CCC[C@]3(C2)C[C@H](C3)O1 [Example 356, (1R,3S)-10,32-difluoro-24-(((2R,7aS)-2-fluorotetrahydro-1H-pyrrolo[1,2-a]pyrrol-7a(5H)-yl)methoxy)-4,6-dioxa-13,14,19,23,25,27-hexaazaheptacyclo[25.3.1.1~1,3~.1~18,22~.0~9,17~.0~12,16~.0~21,26~]tritriaconta-9,11,14,16,18(32),19,21,23,25-nonaen-5-one]
- IC50 [1, 4]: 0.004 µM
- IC50 [2, 5]: 0.003 µM
- IC50 [3, 6]: 0.0082 µM
- IC50 (AsPC-1 cells; AsPC-1, 72 h): 0.094 µM
